Entries after “also recorded” stand apart in the source; their conditions may differ. Where two headings read alike, the source gives them in different places.
Key:
normal human basophils = experiment: Degranulation of normal human basophils after anti-IgE antibody, CD63 and CD203c expression by flow cytometry; format: cell-based; conditions: 4 donors; for Emax: Homo sapiens, effect-dose study, 1 to 100 micromolars; for dose effect, CD63 marker / dose effect, CD203c marker: between 1 and 100 micromolars, no plateau effect
Source text: The compounds according to the invention have a substantial protective activity towards the degranulation of normal human basophils, such that it may be evaluated by the overexpression of CD203c and of CD63 after exposure to an anti-IgE antibody. In particular, the concentration of the compound according to the invention giving the possibility of obtaining a 50% protective effect (with respect to a value of 100% corresponding to the control achieved in the absence of a compound according to the invention) belongs to the range from 1 to 100 micromolar.
a) Activity on the Degranulation of Normal Human Basophils CD203c and CD 63
This test consists of analyzing with flow cytometry the expression of the membrane markers CD203c and CD63 on normal human basophils. For this blood from healthy donors is exposed to an antibody directed against immunoglobulins E (IgE) which leads to activation and degranulation of the basophils, causing an increase in the expression of CD203c and CD63. […] As the compounds of interest are dissolved in dimethylsulfoxide (DMSO), a control is also produced by incubating the basophils in the presence of DMSO without any active ingredient.

asthma model in mice = experiment: Ovalbumin (OVA) asthma model in mice: plethysmography, broncho-alveolar wash and lung cytology; format: in vivo; conditions: one day after last OVA challenge; for intrabronchial infiltrate: broncho-alveolar wash; for respiratory function: Penh in response to increasing doses of metacholine: non-invasive plethysmography, i.p. daily
Source text: b) Effect on the Respiratory Function in an Asthma Model in Mice
The compounds according to the invention were also subject to tests in vivo. Cromoglycate was used as a reference compound since presently it is the only compound presently marketed having been described as having an effect on the degranulation of basophils.
• The model used is an ovalbumin model (ova). The procedure includes: • 4 weeks of sensitization with ova solubilized in a solution containing alum and injected intra-peritoneally (I-P). • 1 week of challenge with 3 intranasal challenges of ova solubilized in phosphate buffer PBS for 3 subsequent days. • Injections of PBS, of compound (I.1) or of cromoglycate were carried out all along the challenge phase and continued until the date of analysis in an amount of one injection per day intra-peritoneally. • The analyses were carried out 1 and 5 days after the last intranasal challenge. • These analyses comprise:
One Day after the Last Challenge • an analysis the of the respiratory function by non-invasive plethysmography on 10 mice per group. The respiratory function is analysed in response to an increasing dose of metacholine (broncho-constrictor). • recovery and analysis of the broncho-alveolar wash (count of the number of cells, and cytological analysis) on 5 mice. • dissection of the lungs for cytological analysis (microscopic study after staining) on the same 5 mice.
Five Days after the Last Challenge • an analysis of the pulmonary resistance by the forced oscillation technique (invasive method) on the 5 remaining mice of different groups. The pulmonary resistance is analyzed in response to an increasing dose of metacholine (bronchoconstrictor). • recovery and analysis of the broncho-alveolar wash (counting the number of cells, and deposition on a slide by cytospin for cytological analysis) on these 5 mice.
A compound group (1.1) (n=10), an i-cm group (cromoglycate, n=10) and an i-PBS group (n=10).
The compound (I.1) is dissolved in a DMSO solution. This stock solution is then diluted in an ethanol:PBS (vol:vol) solution before intraperitoneal administration.
The Penh (enhanced pause) values, calculated from plethysmography measurements, express the prolongation of the expiratory pause time observed in subjects having a reduction of the bronchial calibre and are correlated with the respiratory resistance. A decrease in the Penh values therefore corresponds to a protective effect towards bronchoconstriction induced by OVA.

[1] = read-out: maximum effect on CD63
[2] = read-out: maximum effect on CD203c
[3] = flow cytometry cytology, compared with PBS group

COc1cccc(OC)c1/C=C/C(=O)c1c(O)cc(OC)c(C2CCN(C)CC2)c1OC [compound (I.2)]
Emax (normal human basophils; [1]): 80% | Emax (normal human basophils; [2]): 40% | dose effect, CD63 marker (normal human basophils): A dose effect is observed | dose effect, CD203c marker (normal human basophils): A dose effect is observed

COc1cc(O)c(C(=O)/C=C/c2c(Cl)cccc2Cl)c(OC)c1C1CCN(C)CC1 [compound (I.3)]
Emax (normal human basophils; [1]): 80% | Emax (normal human basophils; [2]): 40% | dose effect, CD63 marker (normal human basophils): A dose effect is observed | dose effect, CD203c marker (normal human basophils): A dose effect is observed

COc1cc(OC)c(/C=C/C(=O)c2c(O)cc(OC)c(C3CCN(C)CC3)c2OC)c(OC)c1 [compound (I.1)]
Emax (normal human basophils; [1]): 80% | Emax (normal human basophils; [2]): 40% | dose effect, CD63 marker (normal human basophils): A dose effect is observed | dose effect, CD203c marker (normal human basophils): A dose effect is observed | intrabronchial infiltrate (asthma model in mice; compared with PBS group): significant decrease in the intrabronchial infiltrate | T lymphocytes in the intrabronchial infiltrate (asthma model in mice; [3]): reduction | eosinophils in the intrabronchial infiltrate (asthma model in mice; [3]): a reduction in the eosinophils | intra-pulmonary hypereosinophilia (asthma model in mice; lungs, flow cytometry cytology): much less substantial | respiratory function: Penh in response to increasing doses of metacholine (asthma model in mice; compared with PBS group): the difference is only significant for the dose at 40 mg/ml; also recorded: improves the respiratory function of the mice

O=C(O)c1cc(=O)c2c(OCC(O)COc3cccc4oc(C(=O)O)cc(=O)c34)cccc2o1 [cromoglycate, reference compound]
intrabronchial infiltrate (asthma model in mice; compared with PBS group): does not exhibit any significant difference | eosinophils in the intrabronchial infiltrate (asthma model in mice; [3]): does not show any significant reduction in the eosinophil infiltrate | respiratory function: Penh in response to increasing doses of metacholine (asthma model in mice; compared with PBS group): same increases in Penh

— patent US9896415B2, “Chalcone derivatives having an anti-allergic activity” (UNIVERSITE CLAUDE BERNARD LYON I, priority 2013, dated 2018)
